Where only a bound is given, the exact number is not on record here.

For the first assay, the target named is T1, his-galectin-3 (Homo sapiens, UniProt P17931).
T1 construct: purchased Abcam
T1 sequence (P17931 whole entry): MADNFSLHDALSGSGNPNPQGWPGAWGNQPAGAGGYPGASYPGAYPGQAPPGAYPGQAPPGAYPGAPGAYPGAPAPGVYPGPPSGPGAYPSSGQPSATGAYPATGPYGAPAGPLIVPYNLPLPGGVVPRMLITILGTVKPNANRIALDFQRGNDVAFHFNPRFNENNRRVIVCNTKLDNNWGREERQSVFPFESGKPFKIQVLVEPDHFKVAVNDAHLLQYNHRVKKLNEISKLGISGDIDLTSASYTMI
Description: TR-FRET assay (in vitro galectin-3 binding inhibitory activity test). As to conditions: Table 1; compound at 20 μM; 60 nM his-galectin-3, 15 nM biotin-ASF; read-out: % Inhibitory activity (at 20 μM). The method, boiled down: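 Compound is premixed with his-galectin-3 (60 nM final), then biotin-ASF (15 nM), Tb anti-His antibody (2 nM) and streptavidin-d2 (20 nM) are added. After at least 3.5 hours at RT in HEPES/NaCl buffer with Tween 20 and BSA, TR-FRET is read at 615/665 nm. DMSO serves as the uninhibited control, ASF omission as background.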
(In general: In TR-FRET formats the signal depends on donor and acceptor labels being close together.)
Turning to `OC[C@H]1O[C@@]2(CCCCO2)[C@H](OCc2ccccc2)[C@@H](n2cc(-c3cc(F)c(F)c(F)c3)nn2)[C@H]1O` [Compound A25, (2R,3R,4S,5R,6S)-5-(benzyloxy)-2-(hydroxymethyl)-4-(4-(3,4,5-trifluorophenyl)-1H-1,2,3-triazol-1-yl)-1,7-dioxaspiro[5.5]undecan-3-ol], the inhibition at 20 µM lay in the range of 25 to 50%.
On the same count and under the same terms, to `OC[C@H]1O[C@]2(OCC[C@H]2NCc2ccc(Cl)cc2)[C@H](O)[C@@H](n2cc(-c3cc(F)c(F)c(F)c3)nn2)[C@H]1O` [Compound A97, (4R,5S,7R,8R,9S,10R)-4-((4-chlorobenzyl)amino)-7-(hydroxymethyl)-9-(4-(3,4,5-trifluorophenyl)-1H-1,2,3-triazol-1-yl)-1,6-dioxaspiro[4.5]decane-8,10-diol] belongs less than 25%; to `O=C1CCCC2(N1)O[C@H](CO)[C@H](O)[C@H](n1cc(-c3cc(F)c(F)c(F)c3)nn1)[C@H]2OCc1ccccc1` (stereo partly drawn) [Compound A93, (2R,3R,4S,5R)-5-(benzyloxy)-3-hydroxy-2-(hydroxymethyl)-4-(4-(3,4,5-trifluorophenyl)-1H-1,2,3-triazol-1-yl)-1-oxa-7-azaspiro[5.5]undecan-8-one], less than 25%; to `O=C(CO[C@@H]1[C@@H](n2cc(-c3cc(F)c(F)c(F)c3)nn2)[C@@H](O)[C@@H](CO)O[C@@]12CCCO2)Nc1ccc(Cl)nn1` [Compound A29, N-(6-chloropyridazin-3-yl)-2-(((5S,7R,8R,9S,10R)-8-hydroxy-7-(hydroxymethyl)-9-(4-(3,4,5-trifluorophenyl)-1H-1,2,3-triazol-1-yl)-1,6-dioxaspiro[4.5]decan-10-yl)oxy)acetamide], less than 25%.
As for `OC[C@H]1O[C@@]2(CCCCO2)[C@H](OCC(F)F)[C@@H](n2cc(-c3cc(F)c(F)c(F)c3)nn2)[C@H]1O` [Compound A46, (2R,3R,4S,5R,6S)-5-(2,2-difluoroethoxy)-2-(hydroxymethyl)-4-(4-(3,4,5-trifluorophenyl)-1H-1,2,3-triazol-1-yl)-1,7-dioxaspiro[5.5]undecan-3-ol], the inhibition at 20 µM lay within 25 to 50%.
In the case of `OC[C@H]1O[C@@]2(CCCO2)[C@H](OCc2cccc(O)c2)[C@@H](n2cc(-c3cc(F)c(F)c(F)c3)nn2)[C@H]1O` [Compound A38, (5S,7R,8R,9S,10R)-10-((3-hydroxybenzyl)oxy)-7-(hydroxymethyl)-9-(4-(3,4,5-trifluorophenyl)-1H-1,2,3-triazol-1-yl)-1,6-dioxaspiro[4.5]decan-8-ol], the inhibition at 20 µM was 25 to 50%.
In the case of `OC[C@H]1O[C@@]2(CCCCO2)[C@H](OCc2cccc(C(F)(F)F)c2)[C@@H](n2cc(-c3cc(F)c(F)c(F)c3)nn2)[C@H]1O` [Compound A49, (2R,3R,4S,5R,6S)-2-(hydroxymethyl)-5-((3-(trifluoromethyl)benzyl)oxy)-4-(4-(3,4,5-trifluorophenyl)-1H-1,2,3-triazol-1-yl)-1,7-dioxaspiro[5.5]undecan-3-ol], the inhibition at 20 µM fell in the range of 25 to 50%.
Same read-out and setting: next, `O=C(O[C@@H]1[C@@H](n2cc(-c3cc(F)c(F)c(F)c3)nn2)[C@@H](O)[C@@H](CO)O[C@@]12CCCCO2)c1cccc(F)c1` [Compound A51, (2R,3R,4S,5R,6S)-3-hydroxy-2-(hydroxymethyl)-4-(4-(3,4,5-trifluorophenyl)-1H-1,2,3-triazol-1-yl)-1,7-dioxaspiro[5.5]undecan-5-yl 3-fluorobenzoate]: 25 to 50%.
For `OC[C@H]1O[C@@]2(CCCO2)[C@H](OCc2ccc(C(F)(F)F)o2)[C@@H](n2cc(-c3cc(F)c(F)c(F)c3)nn2)[C@H]1O` [Compound A19, (5S,7R,8R,9S,10R)-7-(hydroxymethyl)-10-((5-(trifluoromethyl)furan-2-yl)methoxy)-9-(4-(3,4,5-trifluorophenyl)-1H-1,2,3-triazol-1-yl)-1,6-dioxaspiro[4.5]decan-8-ol], the inhibition at 20 µM lay within 25 to 50%.
Consider `O=C(CO[C@@H]1[C@@H](n2cc(-c3cc(F)c(F)c(F)c3)nn2)[C@@H](O)[C@@H](CO)O[C@@]12CCCO2)Nc1ccccc1` [Compound A23, 2-(((5S,7R,8R,9S,10R)-8-hydroxy-7-(hydroxymethyl)-9-(4-(3,4,5-trifluorophenyl)-1H-1,2,3-triazol-1-yl)-1,6-dioxaspiro[4.5]decan-10-yl)oxy)-N-phenylacetamide], for which the inhibition at 20 µM is 25 to 50%.

Still in this assay, the particulars now being: Table 2; compound at 20 μM; 60 nM his-galectin-3, 15 nM biotin-ASF; read-out: % Inhibitory activity (at 20 μM).
On to `Cc1oc2ccccc2c1C(=O)N[C@@H]1CCO[C@]12O[C@H](CO)[C@H](O)[C@H](n1cc(-c3cc(F)c(F)c(F)c3)nn1)[C@H]2O` [Compound A218, N-((4R,5S,7R,8R,9S,10R)-8,10-dihydroxy-7-(hydroxymethyl)-9-(4-(3,4,5-trifluorophenyl)-1H-1,2,3-triazol-1-yl)-1,6-dioxaspiro[4.5]decan-4-yl)-2-methylbenzofuran-3-carboxamide], for which the inhibition at 20 µM is greater than 75%.
For the molecule `CO[C@@H]1[C@@H](n2cc(-c3cc(F)c(F)c(F)c3)nn2)[C@@H](O)[C@@H](CO)O[C@@]12CCCO2` [Compound A257, (5S,7R,8R,9S,10R)-7-(hydroxymethyl)-10-methoxy-9-(4-(3,4,5-trifluorophenyl)-1H-1,2,3-triazol-1-yl)-1,6-dioxaspiro[4.5]decan-8-ol], the inhibition at 20 µM lay within 25 to 50%.
Consider `OC[C@H]1O[C@]2(OCC[C@H]2Nc2ccccc2)[C@H](O)[C@@H](n2cc(-c3cc(F)c(F)c(F)c3)nn2)[C@H]1O` [Compound A206, (4R,5S,7R,8R,9S,10R)-7-(hydroxymethyl)-4-(phenylamino)-9-(4-(3,4,5-trifluorophenyl)-1H-1,2,3-triazol-1-yl)-1,6-dioxaspiro[4.5]decane-8,10-diol], for which the inhibition at 20 µM was greater than 75%.
For `O=C(c1ccc(Cl)cc1)N1CCC[C@]2(C1)O[C@H](CO)[C@H](O)[C@H](n1cc(-c3cc(F)c(F)c(F)c3)nn1)[C@H]2O` [Compound A227, (4-chlorophenyl)((2R,3R,4S,5R,6R)-3,5-dihydroxy-2-(hydroxymethyl)-4-(4-(3,4,5-trifluorophenyl)-1H-1,2,3-triazol-1-yl)-1-oxa-8-azaspiro[5.5]undecan-8-yl)methanone], the inhibition at 20 µM was less than 25%.
With `OC[C@H]1O[C@@]2(CCCN(c3ccccc3)C2)[C@H](O)[C@@H](n2cc(-c3cc(F)c(F)c(F)c3)nn2)[C@H]1O` [Compound A191, (2R,3R,4S,5R,6R)-2-(hydroxymethyl)-8-phenyl-4-(4-(3,4,5-trifluorophenyl)-1H-1,2,3-triazol-1-yl)-1-oxa-8-azaspiro[5.5]undecane-3,5-diol], the inhibition at 20 µM is less than 25%.

The same assay, now with this note: Table 3, found values; compound at 20 μM; 60 nM his-galectin-3, 15 nM biotin-ASF; read-out: % Inhibitory activity (at 20 μM).
Take `CO[C@@H]1[C@@H](n2cc(-c3cc(F)c(F)c(F)c3)nn2)[C@@H](O)[C@@H](CO)O[C@@]12CCCO2` [Compound A257, (5S,7R,8R,9S,10R)-7-(hydroxymethyl)-10-methoxy-9-(4-(3,4,5-trifluorophenyl)-1H-1,2,3-triazol-1-yl)-1,6-dioxaspiro[4.5]decan-8-ol]: the inhibition at 20 µM worked out at 39.2%.
The same measure, in the same setting: to `OC[C@H]1O[C@@]2(CCCN(c3ccccc3)C2)[C@H](O)[C@@H](n2cc(-c3cc(F)c(F)c(F)c3)nn2)[C@H]1O` [Compound A191, (2R,3R,4S,5R,6R)-2-(hydroxymethyl)-8-phenyl-4-(4-(3,4,5-trifluorophenyl)-1H-1,2,3-triazol-1-yl)-1-oxa-8-azaspiro[5.5]undecane-3,5-diol] belongs 24%.

Staying with this assay, now noted: read-out: % Inhibitory activity (at 20 μM), Table 1; compound at 20 μM; 60 nM his-galectin-3, 15 nM biotin-ASF.
For the molecule `O=C(O[C@@H]1[C@@H](n2cc(-c3cc(F)c(F)c(F)c3)nn2)[C@@H](O)[C@@H](CO)O[C@@]12CCCCO2)c1cccnc1` [Compound A61, (2R,3R,4S,5R,6S)-3-hydroxy-2-(hydroxymethyl)-4-(4-(3,4,5-trifluorophenyl)-1H-1,2,3-triazol-1-yl)-1,7-dioxaspiro[5.5]undecan-5-yl nicotinate], the inhibition at 20 µM lay within 25 to 50%.
On to `Cc1ccc(S(=O)(=O)O[C@@H]2[C@@H](n3cc(-c4cc(F)c(F)c(F)c4)nn3)[C@@H](O)[C@@H](CO)O[C@@]23CCCO3)cc1` [Compound A59, (5S,7R,8R,9S,10R)-8-hydroxy-7-(hydroxymethyl)-9-(4-(3,4,5-trifluorophenyl)-1H-1,2,3-triazol-1-yl)-1,6-dioxaspiro[4.5]decan-10-yl 4-methylbenzenesulfonate], for which the inhibition at 20 µM was 25 to 50%.

For the origin of these results see patent US20250026778A1 (TIUMBIO CO., LTD., priority 2021, published 2025).
